According to PubChem BioAssay AID1918936 (Molecular Pharmacology Branch, DTP, NCI, 2023):

Test system: 349418-098-R-PDC complex spheroid viability
Experiment: Anticancer human tumor 349418-098-R-PDC patient-derived lung adenocarcinoma cell line growth inhibition
Conditions: for IC50: curve of first compound; for viability, T/C: stronger effect = lower value
Procedure, shortened: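 Complex spheroids of tumor cells with HUVEC and human MSCs, exposed to iadademstat combined with other agents. Each agent tested in half-log steps from near clinical Cmax (else 10 microM top), DMSO ≤0.25%.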

[1] = second compound 0.1 µM, first compound 0.00949 µM
[2] = second compound 0.1 µM, first compound 0.03 µM
[3] = second compound 0.1 µM, first compound 0.0949 µM
[4] = second compound 0.1 µM, first compound 0.3 µM
[5] = second compound 0.316 µM, first compound 0.00949 µM
[6] = second compound 0.316 µM, first compound 0.03 µM
[7] = second compound 0.316 µM, first compound 0.0949 µM
[8] = second compound 0.316 µM, first compound 0.3 µM
[9] = second compound 1 µM, first compound 0.00949 µM
[10] = second compound 1 µM, first compound 0.03 µM
[11] = second compound 1 µM, first compound 0.0949 µM
[12] = second compound 1 µM, first compound 0.3 µM
[13] = second compound 3.16 µM, first compound 0.00949 µM
[14] = second compound 3.16 µM, first compound 0.03 µM
[15] = second compound 3.16 µM, first compound 0.0949 µM
[16] = second compound 3.16 µM, first compound 0.3 µM
[17] = second compound 10 µM, first compound 0.00949 µM
[18] = second compound 10 µM, first compound 0.03 µM
[19] = second compound 10 µM, first compound 0.0949 µM
[20] = second compound 10 µM, first compound 0.3 µM
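Note: spheroids exposed to agents for seven days before readout.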
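Throughout, for viability, T/C: 100% = DMSO vehicle control wells.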

SMILES: CC1(C)CCC(CN2CCN(c3ccc(C(=O)NS(=O)(=O)c4ccc(NCC5CCOCC5)c([N+](=O)[O-])c4)c(Oc4cnc5[nH]ccc5c4)c3)CC2)=C(c2ccc(Cl)cc2)C1 + NC1CCC(NC2CC2c2ccccc2)CC1
- IC50 (second compound 0.1 µM): 4.25 µM
- IC50 (second compound 0.316 µM): 4.54 µM
- IC50 (second compound 1 µM): 4.3 µM
- IC50 (second compound 3.16 µM): 4.55 µM
- IC50 (second compound 10 µM): 4.24 µM
- viability, T/C (second compound 0.1 µM, first compound 0.0316 µM): 110%
- viability, T/C (second compound 0.1 µM, first compound 0.1 µM): 110%
- viability, T/C (second compound 0.1 µM, first compound 0.316 µM): 99.3%
- viability, T/C (second compound 0.1 µM, first compound 1 µM): 96.3%
- viability, T/C (second compound 0.1 µM, first compound 3.16 µM): 62.5%
- viability, T/C (second compound 0.1 µM, first compound 10 µM): 11.8%
- viability, T/C (second compound 0.316 µM, first compound 0.0316 µM): 115%
- viability, T/C (second compound 0.316 µM, first compound 0.1 µM): 105%
- viability, T/C (second compound 0.316 µM, first compound 0.316 µM): 103%
- viability, T/C (second compound 0.316 µM, first compound 1 µM): 103%
- viability, T/C (second compound 0.316 µM, first compound 3.16 µM): 67.9%
- viability, T/C (second compound 0.316 µM, first compound 10 µM): 11.7%
- viability, T/C (second compound 1 µM, first compound 0.0316 µM): 108%
- viability, T/C (second compound 1 µM, first compound 0.1 µM): 111%
- viability, T/C (second compound 1 µM, first compound 0.316 µM): 105%
- viability, T/C (second compound 1 µM, first compound 1 µM): 96.1%
- viability, T/C (second compound 1 µM, first compound 3.16 µM): 64.4%
- viability, T/C (second compound 1 µM, first compound 10 µM): 10.4%
- viability, T/C (second compound 3.16 µM, first compound 0.0316 µM): 103%
- viability, T/C (second compound 3.16 µM, first compound 0.1 µM): 101%
- viability, T/C (second compound 3.16 µM, first compound 0.316 µM): 104%
- viability, T/C (second compound 3.16 µM, first compound 1 µM): 94.1%
- viability, T/C (second compound 3.16 µM, first compound 3.16 µM): 67.7%
- viability, T/C (second compound 3.16 µM, first compound 10 µM): 12%
- viability, T/C (second compound 10 µM, first compound 0.0316 µM): 62.9%
- viability, T/C (second compound 10 µM, first compound 0.1 µM): 81.2%
- viability, T/C (second compound 10 µM, first compound 0.316 µM): 91%
- viability, T/C (second compound 10 µM, first compound 1 µM): 87.4%
- viability, T/C (second compound 10 µM, first compound 3.16 µM): 63%
- viability, T/C (second compound 10 µM, first compound 10 µM): 11.9%

SMILES: CCN(c1cc(-c2ccc(CN3CCOCC3)cc2)cc(C(=O)NCc2c(C)cc(C)[nH]c2=O)c1C)C1CCOCC1 + NC1CCC(NC2CC2c2ccccc2)CC1
- IC50 (second compound 0.1 µM): > 3 µM
- IC50 (second compound 0.316 µM): > 3 µM
- IC50 (second compound 1 µM): > 3 µM
- IC50 (second compound 3.16 µM): > 3 µM
- IC50 (second compound 10 µM): 0.64 µM
- viability, T/C [1]: 107%
- viability, T/C [2]: 93.5%
- viability, T/C [3]: 82.9%
- viability, T/C [4]: 70.5%
- viability, T/C (second compound 0.1 µM, first compound 0.949 µM): 59.3%
- viability, T/C (second compound 0.1 µM, first compound 3 µM): 60%
- viability, T/C [5]: 99.1%
- viability, T/C [6]: 105%
- viability, T/C [7]: 90.1%
- viability, T/C [8]: 77.5%
- viability, T/C (second compound 0.316 µM, first compound 0.949 µM): 69.3%
- viability, T/C (second compound 0.316 µM, first compound 3 µM): 62.2%
- viability, T/C [9]: 106%
- viability, T/C [10]: 88.7%
- viability, T/C [11]: 98%
- viability, T/C [12]: 75.6%
- viability, T/C (second compound 1 µM, first compound 0.949 µM): 75.3%
- viability, T/C (second compound 1 µM, first compound 3 µM): 57%
- viability, T/C [13]: 106%
- viability, T/C [14]: 87.6%
- viability, T/C [15]: 81%
- viability, T/C [16]: 68.3%
- viability, T/C (second compound 3.16 µM, first compound 0.949 µM): 55.6%
- viability, T/C (second compound 3.16 µM, first compound 3 µM): 59.5%
- viability, T/C [17]: 79%
- viability, T/C [18]: 91.2%
- viability, T/C [19]: 64.9%
- viability, T/C [20]: 59.7%
- viability, T/C (second compound 10 µM, first compound 0.949 µM): 47.4%
- viability, T/C (second compound 10 µM, first compound 3 µM): 34.5%

SMILES: Nc1ncn(C2CC(O)C(CO)S2)c(=O)n1 (stereo not given) + NC1CCC(NC2CC2c2ccccc2)CC1
- IC50 (second compound 0.1 µM): 0.0185 µM
- IC50 (second compound 0.316 µM): 0.0192 µM
- IC50 (second compound 1 µM): 0.0203 µM
- IC50 (second compound 3.16 µM): 0.0192 µM
- IC50 (second compound 10 µM): 0.0124 µM
- viability, T/C (second compound 0.1 µM, first compound 0.000949 µM): 107%
- viability, T/C (second compound 0.1 µM, first compound 0.003 µM): 85.5%
- viability, T/C [1]: 71.7%
- viability, T/C [2]: 34.7%
- viability, T/C [3]: 19.6%
- viability, T/C [4]: 8.78%
- viability, T/C (second compound 0.316 µM, first compound 0.000949 µM): 104%
- viability, T/C (second compound 0.316 µM, first compound 0.003 µM): 100%
- viability, T/C [5]: 71.6%
- viability, T/C [6]: 35.9%
- viability, T/C [7]: 16.1%
- viability, T/C [8]: 9.32%
- viability, T/C (second compound 1 µM, first compound 0.000949 µM): 117%
- viability, T/C (second compound 1 µM, first compound 0.003 µM): 96.2%
- viability, T/C [9]: 74.3%
- viability, T/C [10]: 38.1%
- viability, T/C [11]: 16.1%
- viability, T/C [12]: 8.39%
- viability, T/C (second compound 3.16 µM, first compound 0.000949 µM): 97.5%
- viability, T/C (second compound 3.16 µM, first compound 0.003 µM): 89.8%
- viability, T/C [13]: 73.4%
- viability, T/C [14]: 34.8%
- viability, T/C [15]: 15.6%
- viability, T/C [16]: 7.02%
- viability, T/C (second compound 10 µM, first compound 0.000949 µM): 75.8%
- viability, T/C (second compound 10 µM, first compound 0.003 µM): 86%
- viability, T/C [17]: 51.1%
- viability, T/C [18]: 30.3%
- viability, T/C [19]: 16%
- viability, T/C [20]: 7.62%
